This data set in a line: Serum concentration of amphotericin B in rabbits after rectal administration of suppositories (HPLC). As to conditions: rabbit, in vivo, 10 mg/kg. The protocol: The base Witepsol H-15 was melted at 45° C in a temperature-controlled bath. Equal portions of amphotericin B and dipotassium glycyrrhizinate were added and the mixture was quickly poured into suppository molds and allowed to solidify at room temperature. The target potency was 20 mg amphotericin B/g suppository.
This procedure was repeated with ratios of 1:4 and 1:9 w/w amphotericin B:dispotassium glycyrrhizinate.
These suppositories were tested on white male rabbits weighing from 2.6 to 3.2 kg that received water freely but otherwise fasted for 24 hours prior to administration. Amphotericin B was dosed in 10 mg (activity)/kg and positioned about 2 cm into the rectum. Blood samples of about 1.5 ml were collected from an ear vein of each rabbit at appropriate intervals and evaluated according to procedures in Nilsson-Ehle et al., "Quantitation of amphotericin B with use of High-Pressure Liquid Chromatography," J. Infectious Diseases, Vol. 135, No. 3 (1977).

As to `C[C@@H]1[C@H](O)[C@@H](C)/C=C/C=C/C=C/C=C/C=C/C=C/C=C/[C@H](O[C@@H]2O[C@H](C)[C@@H](O)[C@H](N)[C@@H]2O)C[C@@H]2O[C@](O)(C[C@@H](O)C[C@@H](O)[C@H](O)CC[C@@H](O)C[C@@H](O)CC(=O)O[C@H]1C)C[C@H](O)[C@H]2C(=O)O` [Amph., amphotericin B], the concentration at 1 h was 1 ng/mL, the concentration at 3 h came out at 2.3 ng/mL, the concentration at 5 h came out at 1.5 ng/mL and the concentration at 7 h was determined as 1 ng/mL. The molecule further returned a concentration at 9 h of 3.3 ng/mL, a concentration at 11 h of 2.7 ng/mL and a concentration at 24 h of 1.3 ng/mL.
